Assay results from the supplement of paper PMC8612539.
Converted amounts (≈) assume the structure as drawn.

System: Pasteurella multocida
Assay: minimum inhibitory concentration (MIC)
Experimental: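 Broth microdilution MIC (Sensititre BOPO7F bovine plate, CLSI methods) of 19 antimicrobials against field isolates of P. multocida, M. haemolytica, H. somni (deep nasopharyngeal swabs) and E. coli, Enterococcus spp. (rectal swabs) from weaned dairy heifers. Incubation 16-24 h at 35 C. MIC is the lowest concentration preventing visible growth. Values with <= or > lie at the tested range limits. Trimethoprim-sulfamethoxazole is given as the trimethoprim component of a 1:19 mixture.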

CCC[C@@H]1C[C@@H](C(=O)N[C@@H]([C@H]2O[C@H](SC)[C@H](O)[C@@H](O)[C@H]2O)[C@H](C)Cl)N(C)C1 [Clindamycin]
Settings | minimum inhibitory concentration [µg/mL]
isolate (source animal id): 10 | > 16
isolate (source animal id): 11 | > 16
isolate (source animal id): 12 | > 16
isolate (source animal id): 19 | > 16
isolate (source animal id): 23 | > 16
isolate (source animal id): 26 | > 16
isolate (source animal id): 98 | > 16
isolate (source animal id): 104 | > 16
isolate (source animal id): 115 | > 16
isolate (source animal id): 117 | > 16
isolate (source animal id): 118 | > 16
isolate (source animal id): 121 | > 16
isolate (source animal id): 124 | > 16
isolate (source animal id): 125 | > 16
isolate (source animal id): 128 | > 16
isolate (source animal id): 131 | > 16
isolate (source animal id): 135 | > 16
isolate (source animal id): 136 | > 16
isolate (source animal id): 140 | > 16
isolate (source animal id): 144 | > 16
isolate (source animal id): 146 | > 16
isolate (source animal id): 150 | > 16
isolate (source animal id): 151 | > 16
isolate (source animal id): 153 | > 16
isolate (source animal id): 155 | > 16
isolate (source animal id): 157 | > 16
isolate (source animal id): 160 | > 16
isolate (source animal id): 164 | > 16
isolate (source animal id): 165 | > 16
isolate (source animal id): 167 | > 16
isolate (source animal id): 168 | > 16
isolate (source animal id): 169 | > 16
isolate (source animal id): 170 | > 16
isolate (source animal id): 171 | > 16
isolate (source animal id): 172 | > 16
isolate (source animal id): 173 | > 16
isolate (source animal id): 174 | > 16
isolate (source animal id): 175 | > 16
isolate (source animal id): 176 | > 16
isolate (source animal id): 177 | > 16
isolate (source animal id): 178 | > 16
isolate (source animal id): 179 | > 16
isolate (source animal id): 182 | > 16
isolate (source animal id): 192 | > 16
isolate (source animal id): 193 | > 16
isolate (source animal id): 195 | 8 (≈ 18.8 µM)
isolate (source animal id): 196 | > 16
isolate (source animal id): 197 | > 16
isolate (source animal id): 198 | > 16
isolate (source animal id): 199 | > 16
isolate (source animal id): 200 | > 16
isolate (source animal id): 201 | > 16
isolate (source animal id): 203 | > 16
isolate (source animal id): 204 | > 16
isolate (source animal id): 205 | > 16
isolate (source animal id): 206 | > 16
isolate (source animal id): 207 | > 16
isolate (source animal id): 208 | > 16
isolate (source animal id): 209 | > 16
isolate (source animal id): 210 | > 16
isolate (source animal id): 213 | > 16
isolate (source animal id): 216 | > 16
isolate (source animal id): 223 | > 16
isolate (source animal id): 227 | > 16
isolate (source animal id): 229 | > 16
isolate (source animal id): 233 | > 16
isolate (source animal id): 234 | > 16
isolate (source animal id): 237 | > 16
isolate (source animal id): 241 | > 16
isolate (source animal id): 245 | > 16
isolate (source animal id): 247 | > 16
isolate (source animal id): 250 | > 16
isolate (source animal id): 254 | > 16
isolate (source animal id): 255 | > 16
isolate (source animal id): 258 | > 16
isolate (source animal id): 261 | > 16
isolate (source animal id): 262 | > 16
isolate (source animal id): 269 | > 16
isolate (source animal id): 270 | > 16
isolate (source animal id): 274 | > 16
isolate (source animal id): 275 | > 16
isolate (source animal id): 276 | > 16
isolate (source animal id): 277 | > 16
isolate (source animal id): 278 | > 16
isolate (source animal id): 279 | > 16
isolate (source animal id): 280 | > 16
isolate (source animal id): 284 | > 16
isolate (source animal id): 285 | > 16
isolate (source animal id): 287 | > 16
isolate (source animal id): 290 | > 16
isolate (source animal id): 294 | > 16
isolate (source animal id): 295 | > 16
isolate (source animal id): 296 | > 16
isolate (source animal id): 307 | > 16
isolate (source animal id): 310 | > 16
isolate (source animal id): 311 | > 16
isolate (source animal id): 312 | > 16
isolate (source animal id): 313 | > 16
isolate (source animal id): 315 | > 16
isolate (source animal id): 316 | > 16
